Source: patent publication US20120270237A9, “METHODS FOR THE IDENTIFICATION OF KINASE INTERACTING MOLECULES AND FOR THE PURIFICATION OF KINASE PROTEINS” (Cellzone AG, priority 2009, published 2012)

What was measured:
Assay in all cases: Kinobeads competition binding, HL60 cell lysate
Parameters in all cases: endogenous in cells; host or cells: HL60
Conditions in all cases: 10 μM free compound
GSK3B = GSK3B (Homo sapiens, UniProt P49841)
Procedure: (§1) To one aliquot of cell lysate 10 μM of the free compound (FIG. 3, CZC31326) was added and allowed to bind to proteins in the lysate. Then the affinity matrix with the immobilized compound (Example 1) was added to capture proteins that were not interacting with the previously added free compound. Beads were separated from the lysate and bead bound proteins were eluted in SDS sample buffer and subsequently separated by SDS-Polyacrylamide gel electrophoresis (FIG. 4). Suitable gel bands were cut out and subjected to in-gel proteolytic digestion with trypsin. The second lysate aliquot was processed identically, however no free compound was added (DMSO solvent control). Peptides originating from samples 1 and 2 were labeled with iTRAQ reagents (iTRAQ 114 and iTRAQ 117) and the combined samples were analyzed with a nano-flow liquid chromatography system coupled online to a tandem mass spectrometer (LC-MS/MS) experiment followed by iTRAQ reporter ion quantification in the MS/MS spectra (Ross et al., 2004. Mol. Cell. Proteomics 3(12):1154-1169). Further experimental protocols can be found in WO2006/134056 and a previous publication (Bantscheff et al., 2007. Nature Biotechnology 25, 1035-1044). Sepharose-beads with the immobilized compound (100 μl beads per pull-down experiment) were equilibrated in lysis buffer and incubated with a cell lysate sample containing 50 mg of protein on an end-over-end shaker (Roto Shake Genie, Scientific Industries Inc.) for 2 hours at 4° C. Beads were collected, transferred to Mobicol-columns (MoBiTech 10055) and washed with 10 ml lysis buffer containing 0.4% NP40 detergent, followed by 5 ml lysis buffer containing 0.2% detergent. To elute bound proteins, 60 μl 2×SDS sample buffer was added to the column. The column was incubated for 30 minutes at 50° C. and the eluate was transferred to a siliconized microfuge tube by centrifugation. Proteins were then alkylated with 108 mM iodoacetamid. Proteins were then separated by SDS-Polyacrylamide electrophoresis (SDS-PAGE). The peptide extracts of samples treated with 10 μM of free compound (CZC31326) and the solvent control (0.5% DMSO) were treated with different variants of the isobaric tagging reagent (iTRAQ Reagents Multiplex Kit, part number 4352135, Applied Biosystems, Foster City, Calif., USA). The iTRAQ reagents are a set of multiplexed, amine-specific, stable isotope reagents that can label peptides on amino groups in up to four different biological samples enabling simultaneous identification and quantitation of peptides. The iTRAQ reagents were used according to instructions provided by the manufacturer. The samples were resuspended in 10 μl 50 mM TEAB solution, pH 8.5 and 10 μl ethanol were added. The iTRAQ reagent was dissolved in 120 μl ethanol and 10 μl of reagent solution were added to the sample. The labeling reaction was performed at room temperature for one hour on a horizontal shaker and stopped by adding 5 μl of 100 mM TEAB and 100 mM glycine in water. The two labeled sampled were then combined, dried in a vacuum centrifuge and resuspended in 10 μl of 0.1% formic acid in water. Relative protein quantitation was performed using peak areas of iTRAQ reporter ion signals essentially as described in an earlier publication (Bantscheff et al., 2007. Nature Biotechnology 25, 1035-1044).

HIPK2 = HIPK2 (Homo sapiens, UniProt Q9H2X6)
Sequence of HIPK2 (Q9H2X6 whole entry): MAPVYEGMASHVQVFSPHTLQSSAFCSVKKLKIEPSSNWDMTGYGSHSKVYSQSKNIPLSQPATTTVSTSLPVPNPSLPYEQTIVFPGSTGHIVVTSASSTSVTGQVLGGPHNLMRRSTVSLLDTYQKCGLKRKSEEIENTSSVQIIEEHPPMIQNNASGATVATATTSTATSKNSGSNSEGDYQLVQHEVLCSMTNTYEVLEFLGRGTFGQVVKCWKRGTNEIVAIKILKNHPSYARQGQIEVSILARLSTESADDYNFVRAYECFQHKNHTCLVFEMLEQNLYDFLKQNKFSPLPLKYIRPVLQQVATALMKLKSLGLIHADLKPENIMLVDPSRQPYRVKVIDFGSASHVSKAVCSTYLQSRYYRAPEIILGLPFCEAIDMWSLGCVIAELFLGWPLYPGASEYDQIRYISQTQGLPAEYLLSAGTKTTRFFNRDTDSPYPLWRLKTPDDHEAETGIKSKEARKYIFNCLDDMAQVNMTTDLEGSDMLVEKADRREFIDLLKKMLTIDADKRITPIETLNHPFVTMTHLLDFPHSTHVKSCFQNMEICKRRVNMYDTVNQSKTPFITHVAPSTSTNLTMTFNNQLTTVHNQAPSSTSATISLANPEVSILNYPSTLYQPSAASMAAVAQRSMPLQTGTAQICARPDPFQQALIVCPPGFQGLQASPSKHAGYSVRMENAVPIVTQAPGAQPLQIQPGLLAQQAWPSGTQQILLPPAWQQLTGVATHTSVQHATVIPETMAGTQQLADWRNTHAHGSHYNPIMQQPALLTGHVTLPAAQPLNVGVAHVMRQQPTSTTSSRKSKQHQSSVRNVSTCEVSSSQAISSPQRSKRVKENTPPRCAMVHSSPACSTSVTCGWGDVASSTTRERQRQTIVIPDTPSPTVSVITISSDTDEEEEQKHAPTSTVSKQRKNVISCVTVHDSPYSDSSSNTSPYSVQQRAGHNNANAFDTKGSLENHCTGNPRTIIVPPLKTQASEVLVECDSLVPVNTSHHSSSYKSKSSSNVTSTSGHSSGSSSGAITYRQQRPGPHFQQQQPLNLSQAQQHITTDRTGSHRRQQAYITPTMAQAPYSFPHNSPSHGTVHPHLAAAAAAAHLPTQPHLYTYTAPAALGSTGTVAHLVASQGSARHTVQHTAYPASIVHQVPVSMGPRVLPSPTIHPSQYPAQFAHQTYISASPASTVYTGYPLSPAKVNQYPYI
Procedure: as §1

PIP5K2C = molecular target: T1, PIP5K2C (Homo sapiens, UniProt Q8TBX8)
T1 sequence (Q8TBX8 1-421): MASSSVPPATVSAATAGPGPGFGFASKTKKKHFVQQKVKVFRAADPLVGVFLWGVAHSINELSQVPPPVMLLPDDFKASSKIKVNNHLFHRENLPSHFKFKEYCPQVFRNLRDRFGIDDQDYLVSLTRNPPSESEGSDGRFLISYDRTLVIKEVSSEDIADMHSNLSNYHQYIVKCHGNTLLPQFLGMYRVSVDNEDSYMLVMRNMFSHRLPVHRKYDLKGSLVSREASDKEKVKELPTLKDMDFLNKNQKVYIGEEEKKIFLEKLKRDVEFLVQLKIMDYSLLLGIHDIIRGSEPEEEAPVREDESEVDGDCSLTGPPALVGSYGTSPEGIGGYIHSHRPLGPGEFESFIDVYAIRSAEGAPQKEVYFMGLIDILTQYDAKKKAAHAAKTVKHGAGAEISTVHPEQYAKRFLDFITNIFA
Procedure: as §1

PKN1 = PKN1 (Homo sapiens, UniProt Q16512)
Sequence of PKN1 (Q16512 whole entry): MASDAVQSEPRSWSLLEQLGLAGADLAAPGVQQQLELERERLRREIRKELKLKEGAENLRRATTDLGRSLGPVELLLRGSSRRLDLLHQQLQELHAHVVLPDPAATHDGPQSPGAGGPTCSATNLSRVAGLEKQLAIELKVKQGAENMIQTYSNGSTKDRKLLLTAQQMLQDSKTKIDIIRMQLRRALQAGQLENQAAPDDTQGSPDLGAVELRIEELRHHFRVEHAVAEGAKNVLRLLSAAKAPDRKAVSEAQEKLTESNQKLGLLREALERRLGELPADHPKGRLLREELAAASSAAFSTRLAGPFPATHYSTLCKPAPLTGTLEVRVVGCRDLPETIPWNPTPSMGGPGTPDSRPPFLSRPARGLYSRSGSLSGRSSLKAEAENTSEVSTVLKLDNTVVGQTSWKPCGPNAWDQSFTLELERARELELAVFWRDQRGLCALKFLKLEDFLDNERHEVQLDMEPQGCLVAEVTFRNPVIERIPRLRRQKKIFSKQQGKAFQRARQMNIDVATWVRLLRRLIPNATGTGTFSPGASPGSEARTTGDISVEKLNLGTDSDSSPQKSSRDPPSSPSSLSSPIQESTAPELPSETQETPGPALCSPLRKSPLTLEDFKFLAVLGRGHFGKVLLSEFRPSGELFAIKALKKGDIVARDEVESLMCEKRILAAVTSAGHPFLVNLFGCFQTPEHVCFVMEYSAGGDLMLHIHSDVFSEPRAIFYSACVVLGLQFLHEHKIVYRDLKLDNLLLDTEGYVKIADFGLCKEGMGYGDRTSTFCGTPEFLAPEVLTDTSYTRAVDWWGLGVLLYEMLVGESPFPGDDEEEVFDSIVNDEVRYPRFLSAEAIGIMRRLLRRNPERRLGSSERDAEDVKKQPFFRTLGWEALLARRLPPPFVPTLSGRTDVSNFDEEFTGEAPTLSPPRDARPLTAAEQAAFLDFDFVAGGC
Procedure: as §1

TAO3 = molecular target: T2, TAO3 (Homo sapiens, UniProt Q9H2K8)
T2 sequence (Q9H2K8 1-898): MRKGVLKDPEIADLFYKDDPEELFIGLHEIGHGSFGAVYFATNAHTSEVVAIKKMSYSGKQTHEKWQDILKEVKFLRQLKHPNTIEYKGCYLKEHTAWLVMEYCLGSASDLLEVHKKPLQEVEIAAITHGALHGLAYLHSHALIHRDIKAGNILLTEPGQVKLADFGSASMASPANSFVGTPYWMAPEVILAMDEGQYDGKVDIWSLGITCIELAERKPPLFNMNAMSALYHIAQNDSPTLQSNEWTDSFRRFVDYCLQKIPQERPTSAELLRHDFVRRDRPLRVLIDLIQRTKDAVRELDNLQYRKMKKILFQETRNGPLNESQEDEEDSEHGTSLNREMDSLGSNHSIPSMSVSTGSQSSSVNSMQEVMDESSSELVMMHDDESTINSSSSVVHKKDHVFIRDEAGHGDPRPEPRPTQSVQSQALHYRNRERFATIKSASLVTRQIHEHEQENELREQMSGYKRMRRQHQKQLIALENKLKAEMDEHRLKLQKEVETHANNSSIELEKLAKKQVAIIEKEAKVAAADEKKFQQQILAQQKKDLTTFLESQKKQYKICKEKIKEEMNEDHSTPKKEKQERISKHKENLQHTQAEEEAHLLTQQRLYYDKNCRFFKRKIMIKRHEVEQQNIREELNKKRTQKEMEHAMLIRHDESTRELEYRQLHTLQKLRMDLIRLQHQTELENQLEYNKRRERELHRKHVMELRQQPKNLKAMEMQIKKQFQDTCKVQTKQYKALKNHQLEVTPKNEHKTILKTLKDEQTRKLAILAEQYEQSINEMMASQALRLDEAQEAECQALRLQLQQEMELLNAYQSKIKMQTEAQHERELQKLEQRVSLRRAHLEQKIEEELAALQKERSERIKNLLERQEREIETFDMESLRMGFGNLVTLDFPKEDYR
Procedure: as §1

Sequence of GSK3B (P49841 whole entry): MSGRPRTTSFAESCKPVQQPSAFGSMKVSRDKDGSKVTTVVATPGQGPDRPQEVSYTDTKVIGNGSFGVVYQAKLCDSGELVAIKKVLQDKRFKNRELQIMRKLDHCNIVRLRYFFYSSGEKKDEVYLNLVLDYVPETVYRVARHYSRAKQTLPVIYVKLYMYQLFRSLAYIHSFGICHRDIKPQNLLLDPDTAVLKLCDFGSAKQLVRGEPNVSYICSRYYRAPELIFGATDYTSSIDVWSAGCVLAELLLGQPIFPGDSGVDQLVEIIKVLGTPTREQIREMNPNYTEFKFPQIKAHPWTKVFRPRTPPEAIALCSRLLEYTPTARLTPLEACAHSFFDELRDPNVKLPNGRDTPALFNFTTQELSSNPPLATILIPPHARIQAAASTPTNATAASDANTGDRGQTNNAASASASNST

CS(=O)(=O)Nc1ccccc1Nc1nc(Nc2cccc(OCCN)c2)ncc1Cl [CZC31326, N-(2-(2-(3-(2-aminoethoxy)phenylamino)-5-chloropyrimidin-4-ylamino)phenyl)methanesulfonamide]
inhibition at 10 µM (GSK3B): 96.1% | inhibition at 10 µM (HIPK2): 94.4% | inhibition at 10 µM (PIP5K2C): 98.3% | inhibition at 10 µM (PKN1): 97% | inhibition at 10 µM (TAO3): 98%
